The source made the active and inactive calls. No cut-off for these calls is given here.
Experiments:
Coxsackievirus B3 [1] = assay: Antiviral activity against Coxsackievirus B3 infected in human Hep-2 cells assessed as inhibition of virus-induced cytopathic effect measured after 48 hrs by MTT assay; format: functional, organism-based; details: Enterovirus B, HEp-2, 48 h
[2] = Cytotoxicity against Coxsackievirus B3 infected human Hep-2 cells assessed as reduction in cell viability measured after 48 hrs by MTT assay; format: toxicity, cell-based; details: Coxsackievirus B3 infected Hep-2 cells
[3] = Selectivity index, ratio of CC50 for human Hep-2 cells to EC50 for antiviral activity against Coxsackievirus B3 infected in human Hep-2 cells; format: toxicity, cell-based; details: read-out: Ratio CC50/EC50
Staphylococcus aureus [4] = assay: Antimicrobial activity against Staphylococcus aureus assessed as zone of inhibition at 80 ug measured after 1 to 2 days by paper disk diffusion method; format: functional; details: time 1-2 day, read-out: IZ
Escherichia coli = assay: Antimicrobial activity against Escherichia coli DH10B assessed as zone of inhibition at 80 ug measured after 1 to 2 days by paper disk diffusion method; format: functional, organism-based; details: dose 80.0 µg, time 1-2 day
Pseudomonas sp. = assay: Antimicrobial activity against Pseudomonas sp. assessed as zone of inhibition at 80 ug measured after 1 to 2 days by paper disk diffusion method; format: functional, organism-based; details: dose 80.0 µg, time 1-2 day
Micrococcus luteus = assay: Antimicrobial activity against Micrococcus luteus assessed as zone of inhibition at 80 ug measured after 1 to 2 days by paper disk diffusion method; format: functional, organism-based; details: dose 80.0 µg, time 1-2 day
Serratia entomophila = assay: Antimicrobial activity against Serratia entomophila DSM 12358 assessed as zone of inhibition at 80 ug measured after 1 to 2 days by paper disk diffusion method; format: functional, organism-based; details: dose 80.0 µg, time 1-2 day
Saccharomyces cerevisiae = assay: Antimicrobial activity against Saccharomyces cerevisiae assessed as zone of inhibition at 80 ug measured after 1 to 2 days by paper disk diffusion method; format: functional, organism-based; details: dose 80.0 µg, time 1-2 day
Staphylococcus aureus [5] = assay: Potentiation of imipenem-induced antimicrobial activity against Staphylococcus aureus at 10 ug measured after 18 to 24 hrs in presence of 0.5 ug/ml imipenem by paper disk diffusion method; format: functional, organism-based; details: dose 10.0 µg, time 18-24 hrs
Coxsackievirus B3 [6] = assay: Antiviral activity against Coxsackievirus B3 infected in human Hep-2 cells assessed as inhibition of virus-induced cytopathic effect measured after 48 hrs by MTT assay relative to control; format: functional
Coxsackievirus B3 [7] = assay: Antiviral activity against Coxsackievirus B3 infected in human Hep-2 cells assessed as protection against virus-induced pathological changes measured after 48 hrs by microscopic analysis; format: functional, organism-based
Coxsackievirus B3 [8] = assay: Antiviral activity against Coxsackievirus B3 infected in human Hep-2 cells assessed as protection against virus-induced apoptosis measured after 48 hrs by microscopic analysis; format: functional, organism-based
Coxsackievirus B3 [9] = assay: Antiviral activity against Coxsackievirus B3 infected in human Hep-2 cells assessed as log reduction in viral progeny yield measured after 48 hrs relative to control; format: functional
Staphylococcus aureus [10] = assay: Antimicrobial activity against Staphylococcus aureus assessed as diameter of zone of inhibition at 0.5 ug/ml measured after 18 to 24 hrs by paper disk diffusion method; format: functional; details: time 18-24 hrs, read-out: DIZ
Staphylococcus aureus [11] = assay: Antimicrobial activity against Staphylococcus aureus assessed as diameter of zone of inhibition at 0.25 ug/ml measured after 18 to 24 hrs by paper disk diffusion method; format: functional, organism-based; details: dose 0.25 µg/ml, time 18-24 hrs

With `NC(=O)c1ncn([C@@H]2O[C@H](CO)[C@@H](O)[C@H]2O)n1` [RIBAVIRIN] the EC50 (Coxsackievirus B3 [1]) was 114 µM, the CC50 at 48 h [2] was 386 µM and the selectivity ratio [3] was 3.4.
With `C=C[C@@](C)(O)[C@@H]1C[C@H]2C(=C)[C@@H]3C[C@H]4C(C)(C)CCC[C@]24[C@H]1O3` the zone of inhibition at 80 µg/disc (Staphylococcus aureus [4]) was about 1 mm, the “inhibition zone (IZ)” value (Escherichia coli) was “inactive” and the “inhibition zone (IZ)” value (Pseudomonas sp.) was “inactive”. For the same molecule, the “inhibition zone (IZ)” value (Micrococcus luteus) was “inactive”, the “inhibition zone (IZ)” value (Serratia entomophila) was “inactive” and the “inhibition zone (IZ)” value (Saccharomyces cerevisiae) was “inactive”. The Activity (Staphylococcus aureus [5]) was “inactive”, the Imax (Coxsackievirus B3 [6]) was 90.1% and the EC50 (Coxsackievirus B3 [1]) was 76.8 µM. For the same molecule, the CC50 at 48 h [2] was 160 µM, the selectivity ratio [3] was 2 and the Activity (Coxsackievirus B3 [7]) was “Active”. The Activity (Coxsackievirus B3 [8]) was “Active”.
For `C=C[C@@](C)(O)[C@H]1C[C@H]2C(=C)[C@@H]3C[C@H]4C(C)(C)CCC[C@]24[C@H]1O3`, the zone of inhibition at 80 µg/disc (Staphylococcus aureus [4]) was about 1 mm, the “inhibition zone (IZ)” value (Escherichia coli) was “inactive” and the “inhibition zone (IZ)” value (Pseudomonas sp.) was “inactive”. The “inhibition zone (IZ)” value (Micrococcus luteus) was “inactive”, the “inhibition zone (IZ)” value (Serratia entomophila) was “inactive” and the “inhibition zone (IZ)” value (Saccharomyces cerevisiae) was “inactive”. For the same molecule, the Activity (Staphylococcus aureus [5]) was “inactive”, the Imax (Coxsackievirus B3 [6]) was 91.2% and the EC50 (Coxsackievirus B3 [1]) was 27.2 µM. The CC50 at 48 h [2] was 168 µM, the selectivity ratio [3] was 6.2 and the Activity (Coxsackievirus B3 [7]) was “Active”. For the same molecule, the Activity (Coxsackievirus B3 [8]) was “Active” and the “log(activity)” value (Coxsackievirus B3 [9]) was about 4.5.
In the case of `C[C@@H](O)[C@H]1C(=O)N2C(C(=O)O)=C(SCCNC=N)C[C@H]12` [IMIPENEM ANHYDROUS], the zone of inhibition at 0.5 µg/mL (Staphylococcus aureus [10]) is reported as about 2 mm and the “diameter of the inhibition zone (DIZ)” value (Staphylococcus aureus [11]) is reported as “inactive”.
With `C=C[C@](C)(O)[C@H]1C[C@H]2C(=C)[C@@H]3C[C@H]4C(C)(C)CCC[C@]24[C@H]1O3` the zone of inhibition at 80 µg/disc (Staphylococcus aureus [4]) was about 1 mm, the “inhibition zone (IZ)” value (Escherichia coli) was “inactive” and the “inhibition zone (IZ)” value (Pseudomonas sp.) was “inactive”. The “inhibition zone (IZ)” value (Micrococcus luteus) was “inactive”, the “inhibition zone (IZ)” value (Serratia entomophila) was “inactive” and the “inhibition zone (IZ)” value (Saccharomyces cerevisiae) was “inactive”. The Activity (Staphylococcus aureus [5]) was “inactive”, the Imax (Coxsackievirus B3 [6]) was 85.3% and the EC50 (Coxsackievirus B3 [1]) was 42.7 µM. For the same molecule, the CC50 at 48 h [2] was 161 µM, the selectivity ratio [3] was 3.8 and the Activity (Coxsackievirus B3 [7]) was “Active”. The Activity (Coxsackievirus B3 [8]) was “Active”.

Reference: ChEMBL document CHEMBL5576100, “Genome-Driven Discovery of Antiviral Atralabdans A-C from the Soil-Dwelling Streptomyces atratus” (J Nat Prod, 2024)
